According to publication PMC5750218, “Protein-inspired antibiotics active against vancomycin- and daptomycin-resistant bacteria” (Nature Communications, 2018):
Converted amounts (≈) assume the structure as drawn. Read-outs that look alike come from different tables or passages of the source.

Experiments:
in vitro = conditions: human, 50% human plasma (pooled, sodium heparin) in PBS, pH 7.4
[1] = 37 °C, 20 µM
[2] = test system: Bacillus subtilis ATCC 6633; assay: microbe, parasite or virus in culture; format: cell-based
Haemolysis assay = format: cell-based; conditions: human; for hemolysis at 3 h: whole blood
S. aureus ATCC 43300 = assay: Membrane permeability assay (propidium iodide); format: cell-based, Staphylococcus aureus; conditions: for Fold higher propidium iodide fluorescence than oritavancin: 16 µg mL^−1, MRSA ATCC 43300
Method: To evaluate the ability of the compounds to disrupt the cytoplasmic membrane integrity, the membrane impermeable fluorescent DNA intercalating dye propidium iodide (PI) was used. Early exponential phase cells were pelleted and washed twice in 10 mM HEPES buffer (pH 7.4) containing 50 µg mL^−1 of CaCl2 and 5 mM glucose, and then re-suspended in the same buffer (4 × 10^8 CFU mL^−1). Cell suspension was added to a 384-well black walled polystyrene plate (Corning, CLS3573) containing compounds, giving a final concentration of 16 µg mL^−1. After 1 h incubation at 37 °C, 5 µg mL^−1 of PI was added and fluorescence was monitored for 90 min using a Tecan Infinite® m1000 Pro Multi-mode reader (excitation/emission 535/620 nm). Data were corrected by subtraction of fluorescence signal arising from untreated cells in the presence of PI. […] Each sample was tested in quadruplicate and independent assays were performed twice showing similar results. Data was analysed and presented using Prism software.

[3] = test system: S. pneumoniae ATCC 700677 MDR; assay: microbe, parasite or virus in culture; format: cell-based, Streptococcus pneumoniae; conditions: for MIC: Streptococcus pneumoniae, ATCC700677, 24 h, read-out: MIC S. pneumoniae ATCC 700677 MDR
Method: (§1) The compounds, along with standard antibiotics were serially diluted twofold across the wells of 96-well non-binding surface (NBS) polystyrene plates (Corning 3641). […] Standards ranged from 64 to 0.03 µg mL^−1 and compounds from 8 to 0.003 µg mL^−1 with final assay volumes of 100 µL per well. Gram-positive bacteria were cultured in Mueller Hinton broth (MHB) (Bactolaboratories, Cat. no. 211443) at 37 °C overnight. A sample of each culture was then diluted 40-fold in fresh MHB and incubated at 37 °C for 2–3 h. The resultant mid-log phase cultures were added to the compound-containing 96-well plates to give a final cell density of 5 × 10^5 colony forming unit (CFU) mL^−1. All the plates were covered and incubated at 37 °C for 24 h. MICs were the lowest concentration showing no visible growth.

S. pneumoniae ATCC 33400 = assay: microbe, parasite or virus in culture; format: cell-based, Streptococcus pneumoniae; conditions: for MIC: Streptococcus pneumoniae, ATCC33400, 24 h, read-out: MIC S. pneumoniae ATCC 33400
Method: as §1

[4] = test system: S. aureus ATCC 43300 MRSA; assay: microbe, parasite or virus in culture; format: cell-based, Staphylococcus aureus; conditions: for MIC: Staphylococcus aureus, 24 h, read-out: MIC S. aureus ATCC 43300 MRSA
Method: as §1

Compound: CCCCCCCCCCCCCC(=O)N[C@@H](CCCCN)C(=O)N[C@@H](CCCCN)C(=O)N[C@@H](CCCCN)C(=O)N[C@@H](CCCCNC(=O)[C@H]1NC(=O)[C@H]2NC(=O)[C@H](NC(=O)[C@@H]3NC(=O)[C@H](CC(N)=O)NC(=O)[C@H](NC(=O)[C@@H](CC(C)C)NC)[C@H](O)c4ccc(c(Cl)c4)Oc4cc3cc(c4O[C@@H]3O[C@H](CO)[C@@H](O)[C@H](O)[C@H]3O[C@H]3C[C@](C)(N)[C@H](O)[C@H](C)O3)Oc3ccc(cc3Cl)[C@H]2O)c2ccc(O)c(c2)-c2c(O)cc(O)cc21)C(=O)O [Compound 17, nC13CO-KKK-K(Vancomycin)-OH]
- remaining at 1 h, 20 µM (in vitro): 79%
- remaining at 3 h, 20 µM (in vitro): 79%
- remaining at 6 h, 20 µM (in vitro): 62%
- remaining at 24 h, 20 µM (in vitro): 66%
- % compound remaining after incubation in 50% human plasma, 0h [1]: 100%
- Ac2Kaa concentration required to neutralise MIC activity ([2]; ATCC 6633, 48 h): 400 µg/mL
- MIC ([2]; ATCC 6633, 48 h): ≤ 0.004 µg/mL
- Molar excess of Ac2Kaa ligand required to antagonise antibacterial activity ([2]; [ligand]/[antibiotic], B. subtilis ATCC 6633, 24 h): 29,472
- hemolysis at 3 h (Haemolysis assay; 25 µg mL-1): 0.15%
- hemolysis at 3 h (Haemolysis assay; 50 µg mL-1): 0.75%
- hemolysis at 3 h (Haemolysis assay; 100 µg mL-1): 0.65%
- hemolysis at 3 h (Haemolysis assay; 200 µg mL-1): 0.85%
- hemolysis at 3 h (Haemolysis assay; 400 µg mL-1): 0.5%
- hemolysis at 3 h (Haemolysis assay; 800 µg mL-1): 1%
- hemolysis at 3 h (Haemolysis assay; 1600 µg mL-1): 1.55%
- Membrane permeabilisation (propidium iodide fluorescence) (S. aureus ATCC 43300): comparable fluorescence intensity to oritavancin

Compound: CCCCCCCCCC(=O)N[C@@H](Cc1c[nH]c2ccccc12)C(=O)N[C@H](CC(N)=O)C(=O)N[C@@H](CC(=O)O)C(=O)N[C@@H]1C(=O)NCC(=O)N[C@@H](CCCN)C(=O)N[C@@H](CC(=O)O)C(=O)N[C@H](C)C(=O)N[C@@H](CC(=O)O)C(=O)NCC(=O)N[C@H](CO)C(=O)N[C@@H]([C@H](C)CC(=O)O)C(=O)N[C@@H](CC(=O)c2ccccc2N)C(=O)O[C@@H]1C [Compound 4, Daptomycin]
- MIC ([3]; 1% Survanta): > 8 µg/mL
- MIC ([3]; 5% Survanta): > 8 µg/mL
- MIC ([3]; no added Survanta): 4 µg/mL (≈ 2.47 µM)
- MIC (S. pneumoniae ATCC 33400; 1% Survanta): > 8 µg/mL
- MIC (S. pneumoniae ATCC 33400; 5% Survanta): > 8 µg/mL
- MIC (S. pneumoniae ATCC 33400; no added Survanta): 2 to 4 µg/mL (≈ 1.23 to 2.47 µM)
- hemolysis at 3 h, 25 µg mL-1 (Haemolysis assay; % Human Whole Blood Haemolysis): 0%
- hemolysis at 3 h, 50 µg mL-1 (Haemolysis assay; % Human Whole Blood Haemolysis): 0.4%
- hemolysis at 3 h, 100 µg mL-1 (Haemolysis assay; % Human Whole Blood Haemolysis): 0%
- hemolysis at 3 h, 200 µg mL-1 (Haemolysis assay; % Human Whole Blood Haemolysis): 0.3%
- hemolysis at 3 h, 400 µg mL-1 (Haemolysis assay; % Human Whole Blood Haemolysis): 0.9%
- hemolysis at 3 h, 800 µg mL-1 (Haemolysis assay; % Human Whole Blood Haemolysis): 0.3%
- hemolysis at 3 h, 1600 µg mL-1 (Haemolysis assay; % Human Whole Blood Haemolysis): 1.6%
- Fold higher propidium iodide fluorescence than oritavancin (S. aureus ATCC 43300; listed as Daptomycin): 4–6 fold
- Fold higher propidium iodide fluorescence than oritavancin (S. aureus ATCC 43300; listed as daptomycin): approximately 6 fold
- MIC ([4]; 1% Survanta): > 8 µg/mL
- MIC ([4]; 5% Survanta): > 8 µg/mL
- MIC ([4]; no added Survanta): 2 µg/mL (≈ 1.23 µM)

Compound: CN[C@H]1C(=O)N[C@@H]2Cc3ccc(cc3)Oc3cc4cc(c3O[C@@H]3O[C@H](C(=O)O)[C@@H](O)[C@H](O)[C@H]3NC(=O)CCCCCCCCC(C)C)Oc3ccc(cc3Cl)[C@@H](O)[C@@H]3NC(=O)[C@H](NC(=O)[C@@H]4NC(=O)[C@@H](NC2=O)c2cc(cc(O)c2Cl)Oc2cc1ccc2O)c1ccc(O)c(c1)-c1c(O[C@H]2O[C@H](CO)[C@@H](O)[C@H](O)[C@@H]2O)cc(O)cc1[C@@H](C(=O)NCCCN(C)C)NC3=O [Compound 3, Dalbavancin]
- MIC S. pneumoniae ATCC 700677 MDR ([3]; 1% Survanta): 0.06 µg/mL (≈ 0.033 µM)
- MIC S. pneumoniae ATCC 700677 MDR ([3]; no added Survanta): 0.06 µg/mL (≈ 0.033 µM)
- MIC S. pneumoniae ATCC 33400 (S. pneumoniae ATCC 33400; 1% Survanta): 0.06 µg/mL (≈ 0.033 µM)
- MIC S. pneumoniae ATCC 33400 (S. pneumoniae ATCC 33400; 5% Survanta): 0.125 µg/mL (≈ 0.0688 µM)
- MIC S. pneumoniae ATCC 33400 (S. pneumoniae ATCC 33400; no added Survanta): 0.06 µg/mL (≈ 0.033 µM)
- Membrane permeabilisation (propidium iodide fluorescence) (S. aureus ATCC 43300): little to no effect
- MIC S. aureus ATCC 43300 MRSA ([4]; 1% Survanta): 0.06 µg/mL (≈ 0.033 µM)
- MIC S. aureus ATCC 43300 MRSA ([4]; 5% Survanta): 0.125 µg/mL (≈ 0.0688 µM)
